Experimental data: patent US9884048B2, “ERK inhibitors” (Merck Sharp & Dohme Corp., priority 2014, dated 2018)

Molecular target: phosphorylated active hERK2 enzyme (Homo sapiens (Human), UniProt P28482)
Conditions: ERK2 IC50, IMAP-FP assay; 0.5 nM hERK2, 30 μM ATP; 10 point titration, 3 μM starting concentration

Chain of phosphorylated active hERK2 enzyme (P28482 whole entry): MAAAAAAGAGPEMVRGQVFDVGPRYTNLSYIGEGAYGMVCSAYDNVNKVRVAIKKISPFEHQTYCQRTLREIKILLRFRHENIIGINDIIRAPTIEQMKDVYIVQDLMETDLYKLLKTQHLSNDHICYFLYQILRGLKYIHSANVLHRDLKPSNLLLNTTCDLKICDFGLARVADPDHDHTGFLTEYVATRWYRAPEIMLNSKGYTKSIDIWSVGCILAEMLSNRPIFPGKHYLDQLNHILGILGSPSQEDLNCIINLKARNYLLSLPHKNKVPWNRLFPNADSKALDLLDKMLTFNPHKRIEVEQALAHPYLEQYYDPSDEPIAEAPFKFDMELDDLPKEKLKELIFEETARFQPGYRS

Row | IC50 [nM] | SMILES
1 | 3.65 | Cc1cc(-n2ncc3cc(NC(=O)N[C@H]4CCCC[C@@H]4c4ccccc4)ncc32)ccn1 (racemic) [Example 151, Racemic trans 1-[1-(2-methylpyridin-4-yl)-1H-pyrazolo[3,4-c]pyridin-5-yl]-3-[(1S,2R) and (1R,2S)-2-phenylcyclohexyl]urea]

Same assay, conditions: read-out: ERK2 IC50; IMAP-FP assay; 0.5 nM hERK2, 30 μM ATP; 10 point titration, 3 μM starting concentration

Row | SMILES | IC50 [nM]
2 | Cc1cc(-n2ncc3cc(NC(=O)N[C@@H]4CN(C)C[C@H]4c4ccc(C)s4)ncc32)ccn1 [Example 188, 1-[(3S,4R)-1-methyl-4-(5-methylthiophen-2-yl)pyrrolidin-3-yl]-3-[1-(2-methylpyridin-4-yl)-1H-pyrazolo[3,4-c]pyridin-5-yl]urea] | 70.1
3 | Cc1cc(-n2ncc3cc(NC(=O)N[C@H]4CN(C)C[C@@H]4C4CC4)ncc32)ccn1 [Example 30, 1-[(3R,4S)-4-cyclopropyl-1-methylpyrrolidin-3-yl]-3-[1-(2-methylpyridin-4-yl)-1H-pyrazolo[3,4-c]pyridin-5-yl]urea] | 110
4 | O=C(Nc1cc2cnn(-c3ccncc3)c2cn1)NC1CCCc2ccccc21 (stereo not drawn) [Example 10, 1-(1-pyridin-4-yl-1H-pyrazolo[3,4-c]pyridin-5-yl)-3-(1,2,3,4-tetrahydronaphthalen-1-yl)urea] | 34.7
5 | Cc1cc(-n2ncc3cc(NC(=O)NC(C)c4cccc(OC(F)(F)F)c4)ncc32)ccn1 (stereo not drawn) [Example 48, 1-[1-(2-methylpyridin-4-yl)-1H-pyrazolo[3,4-c]pyridin-5-yl]-3-{1-[3-(trifluoromethoxy)phenyl]ethyl}urea] | 10.7
6 | Cc1cc(-n2ncc3cc(NC(=O)NC4CCCN(c5ccccc5)C4)ncc32)ccn1 (stereo not drawn) [Example 82, 1H-pyrazolo[3,4-c]pyridin-1-[1-(2-methylpyridin-4-yl)-5-yl]-3-(1-phenylpiperidin-3-yl)urea] | 7.61
7 | Cc1cc(-n2ncc3cc(NC(=O)N[C@H]4CN(C)C[C@@H]4c4cnn(C)c4)ncc32)ccn1 [Example 165, 1-[(3R,4S)-1-methyl-4-(1-methyl-1H-pyrazol-4-yl)pyrrolidin-3-yl]-3-[1-(2-methylpyridin-4-yl)-1H-pyrazolo[3,4-c]pyridin-5-yl)urea] | 831
8 | COCCn1ncc2cc(NC(=O)N[C@H](C)c3ccccc3)nc(CO)c21 [Example 312, 1-[7-(hydroxymethyl)-1-(2-methoxyethyl)-1H-pyrazolo[3,4-c]pyridin-5-yl]-3-[(1R)-1-phenylethyl]urea] | 296
9 | CCn1ncc2cc(NC(=O)N[C@H](C)c3ccccc3)nc(CO)c21 [Example 299, 1-[1-Ethyl-7-(hydroxymethyl)-1H-pyrazolo[3,4-c]pyridin-5-yl]-3-[(1R)-1-phenylethyl]urea] | 18.1
10 | Cc1cc(-n2ncc3cc(NC(=O)NC4CCCN(Cc5c(F)cccc5F)C4)ncc32)ccn1 (stereo not drawn) [Example 266, 1-[1-(2,6-difluorobenzyl)piperidin-3-yl]-3-[1-(2-methylpyridin-4-yl)-1H-pyrazolo[3,4-c]pyridin-5-yl]urea] | 2.78
11 | Cc1cc(-n2ncc3cc(NC(=O)N[C@H]4CCC[C@@H]4OCc4ccccc4)ncc32)ccn1 [Example 154, 1-[(1S,2S)-2-(benzyloxy)cyclopentyl]-3-[1-(2-methylpyridin-4-yl)-1H-pyrazolo[3,4-c]pyridin-5-yl]urea] | 7.51
12 | Cc1cc(-n2ncc3cc(NC(=O)N[C@H]4CN(C)C[C@@H]4c4ccc(F)c(Cl)c4)ncc32)ccn1 [Example 18, 1-[(3R,4S)-4-(3-chloro-4-fluorophenyl)-1-methylpyrrolidin-3-yl]-3-[1-(2-methylpyridin-4-yl)-1H-pyrazolo[3,4-c]pyridin-5-yl)urea] | 2.14
13 | O=C(NCCc1ccccc1)Nc1cc2cnn(-c3ccncc3)c2cn1 [Example 8, 1-(2-phenylethyl)-3-(1-pyridin-4-yl-1H-pyrazolo[3,4-c]pyridin-5-yl)urea] | 16.2
14 | Cc1cc(-n2ncc3cc(NC(=O)NCCc4c(C)noc4C)ncc32)ccn1 [Example 117, 1-[2-(3,5-dimethylisoxazol-4-yl)ethyl]-3-[1-(2-methylpyridin-4-yl)-1H-pyrazolo[3,4-c]pyridin-5-yl)urea] | 16.4
15 | C[C@@H](NC(=O)Nc1cc2cnn(C3CCCCC3)c2c(CO)n1)c1ccccc1 [Example 313, 1-[1-cyclohexyl-7-(hydroxymethyl)-1H-pyrazolo[3,4-c]pyridin-5-yl]-3-[(1R)-1-phenylethyl]urea] | 49.1
16 | C[C@@H](O)[C@@H](NC(=O)Nc1cc2cn[nH]c2cn1)c1ccccc1 [Example 227, 1-((1S,2R)-2-Hydroxy-1-phenylpropyl)-3-(1H-pyrazolo[3,4-c]pyridin-5-yl)urea] | 134
17 | Cc1cc(-n2ncc3cc(NC(=O)NC4CCCC(c5ccc(F)cc5)C4)ncc32)ccn1 (stereo not drawn) [Example 173, 1-[3-(4-fluorophenyl)cyclohexyl]-3-[1-(2-methylpyridin-4-yl)-1H-pyrazolo[3,4-c]pyridin-5-yl]urea] | 11.6
18 | Cn1cc2cc(-n3ncc4cc(NC(=O)NC(c5ccccc5)c5cnco5)ncc43)ccc2n1 (stereo not drawn) [Example 35, 1-[1-(2-methyl-2H-indazol-5-yl)-1H-pyrazolo[3,4-c]pyridin-5-yl]-3-[1,3 oxazol-5-yl(phenyl)methyl]urea] | 1.56
19 | COc1cccc(F)c1CN1CCC[C@@H](NC(=O)Nc2cc3cnn(-c4ccnc(C)c4)c3cn2)C1 [Example 56, 1-[(3R)-1-(2-fluoro-6-methoxybenzyl)piperidin-3-yl]-3-[1-(2-methylpyridin-4-yl)-1H-pyrazolo[3,4-c]pyridin-5-yl]urea] | 0.524
20 | C[C@@H](NC(=O)Nc1cc2cnn(C3CCOCC3)c2c(CO)n1)c1ccccc1 [Example 316, 1-[7-(hydroxymethyl)-1-(tetra-hydro-2H-pyran-4-yl)-1H-pyra-- zolo[3,4-c]pyridin-5-yl]-3-[(1R)-1-phenylethyl]urea] | 236
21 | C[C@@H](NC(=O)Nc1cc2cnn(C)c2cn1)c1ccc(F)cc1 [Example 232, 1-[(1R)-1-(4-fluorophenyl)ethyl]-3-(1-methyl-1H-pyrazolo[3,4-c]pyridin-5-yl)urea] | 579
22 | O=C(NCc1ccc(Cl)c(Cl)c1)Nc1cc2cnn(-c3ccncc3)c2cn1 [Example 12, 1-(3,4-dichlorobenzyl)-3-(1-pyridin-4-yl-1H-pyrazolo[3,4-c]pyridin-5-yl)urea] | 0.9
23 | Cc1cc(-n2ncc3cc(NC(=O)N[C@H]4CCN(Cc5c(F)cccc5F)C4)ncc32)ccn1 [Example 282, 1-[(3S)-1-(2,6-difluorobenzyl)pyrrolidin-3-yl]-3-[1-(2-methylpyridin-4-yl)-1H-pyrazolo[3,4-c]pyridin-5-yl]urea] | 169
24 | C=CC(=O)NCCc1nc(NC(=O)N[C@H](C)c2ccccc2)cc2cnn(C)c12 [Example 329, N-{2-[1-Methyl-5-({[(1R)-1-phenylethyl]carbamoyl}amino)-1H-pyrazolo[3,4-c]pyridin-7-yl]ethyl}prop-2-enamide] | 563

Other lines, results leading:

Row | IC50 [nM] | SMILES
25 | 7.66 | Cc1cc(-n2ncc3cc(NC(=O)NCC(CO)c4ccccc4)ncc32)ccn1 (stereo not drawn) [Example 49, 1-(3-hydroxy-2-phenylpropyl)-3-[1-(2-methylpyridin-4-yl)-1H-pyrazolo[3,4-c]pyridin-5-yl]urea]
26 | 24.8 | Cc1cc(-n2ncc3cc(NC(=O)NC(C)c4csc(C)n4)ncc32)ccn1 (stereo not drawn) [Example 123, 1-[1-(2-methylpyridin-4-yl)-1H-pyrazolo[3,4-c]pyridin-5-yl]-3-[1-(2-methyl-1,3-thiazol-4-yl)ethyl]urea]
27 | 0.823 | Cc1cc(-n2ncc3cc(NC(=O)NC4CN(C)CC4c4ccccc4)ncc32)ccn1 (stereo not drawn) [Example 57, 1-(1-methyl-4-phenylpyrrolidin-3-yl)-3-[1-(2-methylpyridin-4-yl)-1H-pyrazolo[3,4-c]pyridin-5-yl]urea]
28 | 1.06 | Cc1cc(-n2ncc3cc(NC(=O)N[C@@H](c4ccccc4)C(C)O)ncc32)ccn1 (stereo partly drawn) [Example 297, (S)-1-(2-hydroxy-1-phenylpropyl)-3-(1-(2-methylpyridin-4-yl)-1H-pyrazolo[3,4-c]pyridin-5-yl)urea]
29 | 17.4 | Cc1cc(-n2ncc3cc(NC(=O)NCc4ccc5c(c4)CNC5=O)ncc32)ccn1 [Example 84, 1-[1-(2-methylpyridin-4-yl)-1H-pyrazolo[3,4-c]pyridin-5-yl]-3-[(1-oxo-2,3-dihydro-1H-isoindol-5-yl)methyl]urea]
30 | 174 | Cc1cc(-n2ncc3cc(NC(=O)NC4CC(C)(C)Oc5ccccc54)ncc32)ccn1 (stereo not drawn) [Example 46, 1-(2,2-dimethyl-3,4-dihydro-2H-chromen-4-yl)-3-[1-(2-methylpyridin-4-yl)-1H-pyrazolo[3,4-c]pyridin-5-yl]urea]
31 | 71.6 | Cc1cc(-n2ncc3cc(NC(=O)NCc4cnn5ccccc45)ncc32)ccn1 [Example 64, 1-[1-(2-methylpyridin-4-yl)-1H-pyrazolo[3,4-c]pyridin-5-yl]-3-(pyrazolo[1,5-a]pyridin-3-ylmethyl)urea]
32 | 8.41 | Cc1cc(-n2ncc3cc(NC(=O)NCc4ccccc4)ncc32)ccn1 [Example 58, 1-benzyl-3-[1-(2-methylpyridin-4-yl)-1H-pyrazolo[3,4-c]pyridin-5-yl]urea]
33 | 5.04 | Cc1cc(-n2ncc3cc(NC(=O)NCc4cccc(Cl)c4)ncc32)ccn1 [Example 215, 1-(3-chlorobenzyl)-3-[1-(2-methylpyridin-4-yl)-1H-pyrazolo[3,4-c]pyridin-5-yl]urea]
34 | 1.09 | CCOC[C@@H](NC(=O)Nc1cc2cnn(-c3ccnc(C)c3)c2cn1)c1ccccc1 [Example 129, 1-[(1S)-2-ethoxy-1-phenylethyl]-3-[1-(2-methylpyridin-4-yl)-1H-pyrazolo[3,4-c]pyridin-5-yl)urea]
35 | 84.5 | Cc1cc(-n2ncc3cc(NC(=O)NCc4csc5ccccc45)ncc32)ccn1 [Example 125, 1-(1-benzothiophen-3-ylmethyl)-3-[1-(2-methylpyridin-4-yl)-1H-pyrazolo[3,4-c]pyridin-5-yl)urea]
36 | 2.31 | Cc1cc(-n2ncc3cc(NC(=O)NCC4Cc5ccccc5N(C)C4)ncc32)ccn1 (stereo not drawn) [Example 99, 1-[1-(2-methylpyridin-4-yl)-1H-pyrazolo[3,4-c]pyridin-5-yl]-3-[(1-methyl-1,2,3,4-tetrahydroquinolin-3-yl)methyl]urea]
